Results published in US12122756B2, “Biflavone compound against I-type herpes simplex virus, and preparation method therefor and use thereof” (priority 2022, dated 2024).

System: HSV-I
Experiment: Action mode: direct inactivation effect on HSV-I (CPE, CCK-8)
Assay type: cell-based, Herpes simplex virus type I
Experimental: (3) The direct inactivation effect of drugs on HSV-I: Vero cells were seeded in a 96-well plate and grew into a monolayer. Different concentrations of samples were respectively mixed with the virus solution, followed by placing at 37° C. for 1 hour. Then, the solution was added the cells, and incubated for 1 hour. Then, the cell maintenance solution was replaced, and the cells were further cultured. After 72 hours, the direct inactivation effects of drugs on HSV-I was determined using the CCK-8 method. Moreover, a virus control group was set up.

COc1c(O)c(Cc2c(O)c(OC)c(O)c3c(=O)c(-c4ccc(O)c(S(=O)(=O)[O-])c4)coc23)c2occ(-c3ccc(O)c(S(=O)(=O)[O-])c3)c(=O)c2c1O.[Na+].[Na+] [Compound 2, 8,8″-methylene-di-(sodiumtectorigenin-5′-sulphonate)]
Direct inactivation: OD value (5.97 μg/ml, n = 6): 0.33 ± 0.04 | Direct inactivation: OD value (11.94 μg/ml, n = 6): 0.39 ± 0.05 | Direct inactivation: OD value (23.88 μg/ml, n = 6): 0.48 ± 0.06 | Direct inactivation: OD value (47.45 μg/ml, n = 6): 0.55 ± 0.08 | Direct inactivation: OD value (95.50 μg/ml, n = 6): 0.65 ± 0.08 | Direct inactivation: OD value (191.00 μg/ml, n = 6): 0.90 ± 0.09 | Direct inactivation: OD value (382.00 μg/ml, n = 6): 1.08 ± 0.06 | direct inactivation of the virus (in words) (CPE method): significant effect | inhibition at 5.97 µg/mL (Human alphaherpesvirus 1, 5.97 μg/ml, n = 6, read-out: Direct inactivation: Inhibition rate (%)): 3.91% | inhibition at 11.94 µg/mL (Human alphaherpesvirus 1, 11.94 μg/ml, n = 6, read-out: Direct inactivation: Inhibition rate (%)): 10.8% | inhibition at 23.88 µg/mL (Human alphaherpesvirus 1, 23.88 μg/ml, n = 6, read-out: Direct inactivation: Inhibition rate (%)): 22.4% | inhibition at 47.45 µg/mL (Human alphaherpesvirus 1, 47.45 μg/ml, n = 6, read-out: Direct inactivation: Inhibition rate (%)): 31.2% | inhibition at 95.5 µg/mL (Human alphaherpesvirus 1, 95.50 μg/ml, n = 6, read-out: Direct inactivation: Inhibition rate (%)): 44.2% | inhibition at 191 µg/mL (Human alphaherpesvirus 1, 191.00 μg/ml, n = 6, read-out: Direct inactivation: Inhibition rate (%)): 76% | inhibition at 382 µg/mL (Human alphaherpesvirus 1, 382.00 μg/ml, n = 6, read-out: Direct inactivation: Inhibition rate (%)): 98.7%
